Experimental data taken from publication PMC12116762, “Topobexin targets the Topoisomerase II ATPase domain for beta isoform-selective inhibition and anthracycline cardioprotection” (Nature Communications, 2025).
“And” between values parts separate entries of the source, which are not always exact repeats. Equal entries are not always repeated.

Tests used:
TOP2B C88Y = target: T1, TOP2B C88Y (Homo sapiens, UniProt Q02880, C93Y); test: ATPase activity of TOP2B C88Y mutant; format: biochemical
T1 construct: Using recombinant full-length human TOP2A and TOP2B enzymes; YFP (N, cleaved yes); made in house; host or cells: HEK293F
Experimental: The human topoisomerase II decatenation assay was performed to determine the inhibitory effects of BNS-22 and new compounds as previously described with minor modifications[14],[36]. The assay was performed using recombinant human TOP2A or TOP2B generated using the HEK293F YFP-tag expression system as previously described[18],[19],[36]. Briefly, plasmids encoding YFP-TOP2A or YFP-TOP2B were transfected into HEK293F cells (Catalog number 11625019, Thermofisher Scientific), and TOP2 proteins were isolated from cell lysates by anti-YFP nanobody affinity chromatography. After elution by TEV protease cleavage, TOP2 proteins were FPLC purified by sequential cation exchange and size exclusion chromatography. Plasmid encoding TOP2B C88Y was generated by round-the-horn PCR mutagenesis and the sequence was verified by full-plasmid sequencing. Purified TOP2 proteins were stored in a storage buffer containing 20 mM HEPES pH 7.5, 500 mM NaCl, 0.5 mM TCEP, 25% (v/v) glycerol at -80 °C. For decatenation assays, purified TOP2 proteins were incubated with 200 ng kDNA (Topogen) in a reaction buffer containing 50 mM Tris−HCl (pH 8), 100 mM NaCl, 10 mM MgCl2, 0.5 mM DTT, 2 mM ATP, 0.1 mM tris(2-carboxyethyl)phosphine (TCEP), 5% (v/v) glycerol, 70 μg/mL bovine serum albumin, and 1/10 volume of each compound diluted in 10% DMSO (final DMSO concentration 1%) for 40 min at 37 °C. The reaction was then stopped by the addition of gel loading buffer (0.5 volumes of 60% (w/v) glycerol, 60 mM EDTA, 20 mM Tris−HCl (pH 7.5), 0.5 mg/mL bromophenol blue) and the samples were placed on ice. Reaction products were resolved by agarose gel electrophoresis in TBE buffer containing GelRed stain (Biotium). Gels were visualized using an iBright CL1000 (Thermofisher Scientific). Band intensities were quantified using FIJI, and the signal of the treated samples was normalized to the value of the control (untreated sample; 100%) present on the same gel. The normalized signal of three independent measurements was then expressed as mean ± SD. Each presented data point was obtained from distinct sample. Normalized values were plotted as a function of inhibitor concentration to determine IC50 values by nonlinear regression with variable slope using Prism 9 (GraphPad).
Topoisomerase proteins were diluted to 500 nM in storage buffer containing 20 mM HEPES pH 7.5, 500 mM NaCl, 0.5 mM TCEP, 25% glycerol, and 0.2 mg/mL BSA prior to use. A coupled assay was used to measure TOP2-catalyzed ATP hydrolysis in vitro[37] in Costar 96-well plates (Corning Incorporated). […] Reaction plates were pre-warmed to 30 °C for 5 min and ATP was added last to initiate the reaction. The reaction plate was placed in a CLARIOstarPlus plate reader (BMG Labtech) to measure NADH fluorescence at 30 °C every 30 s over 120 cycles using a 340-60 excitation filter and a 480-100 emission filter. Background fluorescence signals calculated from wells containing no ATP were subtracted from each measurement. The slope of NADH fluorescence decay in each well was calculated using the MARS software (BMG Labtech) and reaction wells that lacked topoisomerase inhibitor to account for photobleaching of NADH fluorescence served as background subtraction. Each presented data point was obtained from distinct sample. Values were normalized to untreated controls and plotted as a function of inhibitor concentration to determine IC50 values using Prism 9 (GraphPad).

[1] = tested on: neonatal rat ventricular cardiomyocytes (NVCM); test: Protection against DAU-induced cytotoxicity (LDH release) in NVCM; format: cell-based; details: for LDH release: independent replicates
How it was run: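 Primary neonatal Wistar rat cardiomyocytes in serum- and pyruvate-free DMEM/F12 were pretreated with compound 3 h, then co-incubated 3 h with DAU (1.2 µM), or without DAU for inherent toxicity, then given a 48 h drug-free follow-up. Medium LDH activity (NAD+ reduction at 340 nm) expressed as % of total LDH.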

T1 sequence (Q02880 1-1621 isoform Q02880-2 C88Y): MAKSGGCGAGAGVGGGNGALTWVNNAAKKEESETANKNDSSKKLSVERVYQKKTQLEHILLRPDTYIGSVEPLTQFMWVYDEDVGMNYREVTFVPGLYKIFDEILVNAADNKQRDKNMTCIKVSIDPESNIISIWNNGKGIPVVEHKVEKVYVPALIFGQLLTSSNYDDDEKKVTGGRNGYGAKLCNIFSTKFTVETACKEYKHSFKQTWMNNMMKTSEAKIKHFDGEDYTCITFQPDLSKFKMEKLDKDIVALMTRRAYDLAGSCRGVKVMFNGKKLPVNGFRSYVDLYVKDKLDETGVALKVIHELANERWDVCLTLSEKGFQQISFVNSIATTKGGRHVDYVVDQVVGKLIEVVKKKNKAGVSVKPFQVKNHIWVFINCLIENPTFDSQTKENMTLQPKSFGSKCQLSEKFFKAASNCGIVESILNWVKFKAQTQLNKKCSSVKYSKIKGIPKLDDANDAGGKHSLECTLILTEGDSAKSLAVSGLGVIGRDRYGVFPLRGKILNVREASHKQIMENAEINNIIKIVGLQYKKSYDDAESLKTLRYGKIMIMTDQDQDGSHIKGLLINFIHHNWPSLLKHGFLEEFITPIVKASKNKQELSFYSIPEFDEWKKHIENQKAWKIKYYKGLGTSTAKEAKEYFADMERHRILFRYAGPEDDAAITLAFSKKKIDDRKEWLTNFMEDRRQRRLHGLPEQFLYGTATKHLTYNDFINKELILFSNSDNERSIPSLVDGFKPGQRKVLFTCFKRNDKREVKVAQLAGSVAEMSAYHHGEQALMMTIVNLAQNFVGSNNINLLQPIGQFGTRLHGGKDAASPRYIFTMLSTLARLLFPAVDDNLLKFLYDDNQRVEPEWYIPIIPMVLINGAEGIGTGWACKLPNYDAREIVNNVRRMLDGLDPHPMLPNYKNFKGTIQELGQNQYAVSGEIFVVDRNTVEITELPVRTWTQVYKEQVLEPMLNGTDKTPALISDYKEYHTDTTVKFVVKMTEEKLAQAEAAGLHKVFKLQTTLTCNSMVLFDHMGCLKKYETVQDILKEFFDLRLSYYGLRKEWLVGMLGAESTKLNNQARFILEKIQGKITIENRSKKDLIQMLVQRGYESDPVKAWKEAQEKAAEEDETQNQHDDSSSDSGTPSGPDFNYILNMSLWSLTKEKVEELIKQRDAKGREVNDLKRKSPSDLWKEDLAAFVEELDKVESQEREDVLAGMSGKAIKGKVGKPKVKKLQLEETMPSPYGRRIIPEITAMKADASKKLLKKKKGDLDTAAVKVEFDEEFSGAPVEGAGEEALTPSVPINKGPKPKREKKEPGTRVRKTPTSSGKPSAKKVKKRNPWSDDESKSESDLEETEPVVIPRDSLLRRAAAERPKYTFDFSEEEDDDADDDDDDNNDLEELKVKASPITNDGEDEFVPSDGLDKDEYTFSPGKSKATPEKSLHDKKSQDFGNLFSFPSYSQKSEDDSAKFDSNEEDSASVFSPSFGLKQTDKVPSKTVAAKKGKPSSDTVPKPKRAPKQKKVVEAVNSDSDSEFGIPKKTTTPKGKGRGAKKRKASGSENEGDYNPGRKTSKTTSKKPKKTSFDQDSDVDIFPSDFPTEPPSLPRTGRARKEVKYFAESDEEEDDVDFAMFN

## CCCc1cc(=O)oc2c(C(=O)N3CCCc4ccccc43)c(OCCN3CCN(C)CC3)ccc12 [topobexin (9)]
TOP2B C88Y
  IC50: 1880 nM
TOP2B C88Y; 0.0625 μM, independent replicates, normalized to 0 drug
  remaining activity at 0.0625 µM: 98.2%
TOP2B C88Y; 0.125 μM, independent replicates, normalized to 0 drug
  remaining activity at 0.125 µM: 97.9%
TOP2B C88Y; 0.25 μM, independent replicates, normalized to 0 drug
  remaining activity at 0.25 µM: 95.9%
TOP2B C88Y; 0.5 μM, independent replicates, normalized to 0 drug
  remaining activity at 0.5 µM: 84.7%
TOP2B C88Y; 1 μM, independent replicates, normalized to 0 drug
  remaining activity at 1 µM: 69.3%
TOP2B C88Y; 2 μM, independent replicates, normalized to 0 drug
  remaining activity at 2 µM: 43.5%
TOP2B C88Y; 4 μM, independent replicates, normalized to 0 drug
  remaining activity at 4 µM: 18.5%
TOP2B C88Y; 8 μM, independent replicates, normalized to 0 drug
  remaining activity at 8 µM: 6.37%
TOP2B C88Y; vs TOP2B WT
  effect of C88Y mutation in TOP2B on inhibition: conferred significant resistance to inhibition
[1]; NVCM, DAU 1.2 µM
  concentration providing significant cardioprotection: ≥ 1 µM
[1]; Rattus norvegicus, Cardiomyocyte, NVCM, protection against DAU 1.2 µM, n=4, read-out: LEC = lowest effective concentration
  minimal effective concentration: 1 µM
[1]; compound 0.01 µM + DAU 1.2 µM
  LDH release, mean: 39.6717 % of total LDH
  LDH release: 48.3922 % of total LDH and 39.9759 % of total LDH and 35.5793 % of total LDH and 34.7393 % of total LDH
[1]; compound 0.01 µM + DAU 1.2 µM, NVCM, Suppl.Fig.6b
  LDH release (protection against DAU), mean of independent replicates: 39.6717
[1]; compound 0.1 µM + DAU 1.2 µM
  LDH release, mean: 37.5382 % of total LDH
  LDH release: 40.1489 % of total LDH and 41.381 % of total LDH and 32.4516 % of total LDH and 36.1711 % of total LDH
[1]; compound 0.1 µM + DAU 1.2 µM, NVCM, Suppl.Fig.6b
  LDH release (protection against DAU), mean of independent replicates: 37.5382
[1]; compound 0.1 µM + DAU 1.2 µM, NVCM, Suppl.Fig.8a
  LDH release (protection against DAU), mean of independent replicates: 42.825
[1]; compound 1 µM + DAU 1.2 µM
  LDH release, mean: 29.7613 % of total LDH
  LDH release: 32.8929 % of total LDH and 30.456 % of total LDH and 27.486 % of total LDH and 28.2102 % of total LDH
[1]; compound 1 µM + DAU 1.2 µM, NVCM, Suppl.Fig.6b
  LDH release (protection against DAU), mean of independent replicates: 29.7613
[1]; compound 1 µM + DAU 1.2 µM, NVCM, Suppl.Fig.8a
  LDH release (protection against DAU), mean of independent replicates: 37.7816
[1]; compound 10 µM + DAU 1.2 µM
  LDH release, mean: 24.2662 % of total LDH
  LDH release: 28.5774 % of total LDH and 24.8184 % of total LDH and 21.0698 % of total LDH and 22.5992 % of total LDH
[1]; compound 10 µM + DAU 1.2 µM, NVCM, Suppl.Fig.6b
  LDH release (protection against DAU), mean of independent replicates: 24.2662
[1]; compound 10 µM + DAU 1.2 µM, NVCM, Suppl.Fig.8a
  LDH release (protection against DAU), mean of independent replicates: 30.0056
[1]; compound 30 µM + DAU 1.2 µM
  LDH release, mean: 25.2224 % of total LDH
  LDH release: 28.8537 % of total LDH and 23.9613 % of total LDH and 20.3957 % of total LDH and 27.679 % of total LDH
[1]; compound 30 µM + DAU 1.2 µM, NVCM, Suppl.Fig.6b
  LDH release (protection against DAU), mean of independent replicates: 25.2224
[1]; compound 100 µM + DAU 1.2 µM
  LDH release, mean: 26.7487 % of total LDH
  LDH release: 31.0584 % of total LDH and 27.7033 % of total LDH and 21.5053 % of total LDH and 26.728 % of total LDH
[1]; compound 100 µM + DAU 1.2 µM, NVCM, Suppl.Fig.6b
  LDH release (protection against DAU), mean of independent replicates: 26.7487
[1]; compound 100 µM + DAU 1.2 µM, NVCM, Suppl.Fig.8a
  LDH release (protection against DAU), mean of independent replicates: 32.5863
[1]; side-by-side comparison with dexrazoxane (Supp Fig 8a)
  lowest concentration with statistically significant cytoprotective effects: 0.1 µM
